The subject of data set [1] is AGS cells. Description: Cellular reduced glutathione (GSH) content of AGS cells. Conditions: 4 h; for GSH: post-confluent AGS, control 13.6 ± 0.7. It counts as cell-based, human. On the procedure:
Untreated cells were used as controls. […] After incubation, the GSH content was determined using a colorimetric kit (BioAssays Systems, Hayward, CA, USA). Results are expressed as nanomol of soluble reduced sulfhydryls/10^6 cells.

A short description of data set [2]: Cytotoxicity, neutral red uptake assay, AGS. It counts as cell-based. Conditions: human, AGS gastric epithelial cells, confluent monolayer, read-out: IC50 ± SD, cytotoxicity AGS. As to the method:
(§1) Human lung fibroblasts MRC-5 (ATCC CCL-171) were grown in minimum essential Eagle medium (MEM) with Earles’s salts and 2 mM L-glutamine (Sigma-Aldrich Co.). Human epithelial gastric cells AGS (ATCC CRL-1739) were grown in Ham F-12 medium containing 1 mM L-glutamine. Both media were supplemented with 1.5 g/L sodium bicarbonate (Sigma-Aldrich Co.), 10% heat-inactivated fetal bovine serum (FBS), 100 IU/mL penicillin and 100 µg/mL streptomycin.Both cell lines were grown as monolayers in a humidified incubator with 5% CO2 in air at 37 °C. Culture media, antibiotics and FBS were obtained from Invitrogen Corp.
(§2) Cytotoxicity values were required as a reference to determine the working concentrations in the subsequent experiments. Briefly, confluent cultures of MRC-5 and AGS cells were treated during 24 h with medium containing the compounds at concentrations ranging from 0 up to 1,000 µM. The products were first dissolved in DMSO (1% final concentration) and then in the corresponding culture medium supplemented with 2% FBS. Untreated cells were used as controls. Cell viability was determined at the end of the incubation by means of the neutral red uptake (NRU) assay. Lansoprazole (Sigma-Aldrich Co., min. 98% by TLC) was used as reference compound.

Data set [3] relates to human erythrocyte membranes. Description: Inhibition of lipoperoxidation in erythrocyte membranes. It counts as biochemical. Conditions: at 100 µg/mL. On the procedure:
The inhibition of lipid peroxidation was determined using human erythrocyte membranes. The compounds were tested at 100 µg/mL.

The nature of data set [4]: Cytotoxicity, neutral red uptake assay, MRC-5. It counts as cell-based. Conditions: human, MRC-5 lung fibroblasts, confluent monolayer, confluent MRC-5, 24 h, read-out: IC50 ± SD, cytotoxicity MRC-5. On the procedure:
as §1, §2

The test system of data set [5] is AGS cells. Briefly: Sodium taurocholate (NaT)-induced damage to AGS cells. Conditions: 60 min pre-treatment, then 10 mM NaT 30 min. Format: cell-based, human. As to the method: The effect of sodium taurocholate (NaT) on cell viability was determined according to [15]. […] Then, 10 mM NaT was added to all wells for 30 min. Untreated cells were used as controls. […] After incubation, the NRU assay was carried out.

Another data set has as its system MRC-5 fibroblasts. Description: MRC-5 fibroblast proliferation assay. Format: cell-based, human. Conditions: MRC-5, 4 days, concentrations 1/64 to 1/2 of IC50. As to the method: Untreated cells were used as controls. Cell viability was determined at the end of the incubation by means of the NRU assay.
In data set [6] the test system is human erythrocyte membranes. Description: Inhibition of lipoperoxidation in erythrocyte membranes. It counts as biochemical.
Data set [7] deals with AGS cells. Briefly: Prostaglandin E2 (PGE2) content of AGS cells. Format: cell-based, human. Conditions: 1 h; for PGE2: post-confluent AGS, control 52 ± 5. On the procedure:
One day after confluence, AGS cells were treated for 1 h with the compounds at 1/2 and 1/4 of the respective IC50 values. A control with medium only was included. Indomethacin (100 μM) was used as standard inhibitor of prostaglandin synthesis (Sigma-Aldrich Co., min. 99% by TLC). After incubation, PGE2 content was determined by means of a specific enzyme immunoassay kit (R & D Systems KGE004B, Minneapolis, MN, USA) and values were calculated according to the manufacturer instructions. Results are expressed as pg/well.

One may read the IC50 as the concentration that inhibits the measured activity by half.

As for `COC(=O)[C@@]1(C)CCC[C@@]2(C)C1CC[C@H](C)[C@@H]2CC[C@@H](C)CC(=O)OC1=C(CCC(C)C)C(=O)c2ccccc2C1=O` (stereo partly drawn) [Compound 16, Dihydroprenyl lapachol 17β-dihydrojunicedrate methyl ester], the GSH is listed as 14.9 ± 0.7 nmol/10^6 cells in the data set on AGS cells [1] (80 µM) and 14.1 ± 0.6 nmol/10^6 cells in the data set on AGS cells [1] (160 µM). Besides, the values for the IC50 at 24 h in data set [2] and in data set [4] were 643 ± 39 µM and 596 ± 44 µM, respectively. In addition, the “% Inhibition of the lipoperoxidation” value in data set [3] amounted to 46%. For the same compound, the “reduction in cell viability, NaT-induced damage” value (“reduction in cell viability” below) in the data set on AGS cells [5] (81 µM) turned out to be 44%.
Regarding `C=C1CCC2[C@](C)(CCC[C@]2(C)C(=O)O)[C@H]1CC[C@@H](C)CC(=O)OC1=C(CCC(C)C)C(=O)C2=C(CCCC2)C1=O` (stereo partly drawn) [Compound 11, Dihydroprenyl-5,6,7,8-tetrahydrolapachoyl junicedrate], the GSH in the data set with AGS cells [1] (8 µM) came to 13.1 ± 0.6 nmol/10^6 cells; in the data set with AGS cells [1] (16 µM) it was 13.2 ± 0.5 nmol/10^6 cells. For the same compound, the half-inhibitory concentration (IC50) at 24 h was 63 ± 4 µM in data set [2] and 42 ± 2 µM in data set [4]. Also, the “Percentual proliferative increase compared to untreated cells” value (“Percentual proliferative increase” for short) in the data set on MRC-5 fibroblasts is reported as 3.6%. Also, in data set [3], the “% Inhibition of the lipoperoxidation” value was 44%.
As for `CC1=C(CC[C@@H](C)CC(=O)OC2=C(CCC(C)C)C(=O)C3=C(CCCC3)C2=O)[C@@]2(C)CCC[C@](C)(C(=O)O)C2CC1` (stereo partly drawn) [Compound 23, Dihydroprenyl-5,6,7,8-tetrahydrolapachoyl Δ8(9) junicedrate], the “IC50, inhibition of the lipoperoxidation” value in data set [6] is “IC50 59.5 ± 4.3 µg/mL”. The activation at 7.3 µM in the data set with AGS cells [1] (Homo sapiens, AGS, 7.3 µM, read-out: increase of GSH content compared to untreated controls) was found to be 26%. In addition, the GSH with AGS cells [1] (3.6 µM) is reported as 12.6 ± 0.8 nmol/10^6 cells; in the data set with AGS cells [1] (7.3 µM) it was “* 17.1 ± 1.3 nmol/10^6 cells”. The IC50 at 24 h is 29 ± 2 µM in data set [2] and 20 ± 2 µM in data set [4]. Moreover, the “Stimulation of fibroblast proliferation” value in the data set with MRC-5 fibroblasts is “inactive”. The “reduction in cell viability” value is 32% with AGS cells [5] (7.5 µM) and 39% in the data set with AGS cells [5] (15 µM).
For the compound `COC(=O)[C@@]1(C)CCC[C@@]2(C)C1CC[C@H](C)[C@@H]2CC[C@@H](C)CC(=O)OC1=C(CC=C(C)C)C(=O)C2=C(CCCC2)C1=O` (stereo partly drawn) [Compound 18, Dihydroprenyl-5,6,7,8-tetrahydrolapachoyl 17β-dihydrojunicedrate methyl ester], in the data set with AGS cells [1] (Homo sapiens, AGS, 111 µM, read-out: increase of GSH content compared to untreated controls), the activation at 111 µM was found to be 26%. Besides, the activation at 221 µM in the data set with AGS cells [1] (Homo sapiens, AGS, 221 µM, read-out: increase of GSH content compared to untreated controls) is 26%. For the same compound, the GSH result in the data set on AGS cells [1] (111 µM) is “* 17.1 ± 1.1 nmol/10^6 cells”; in the data set on AGS cells [1] (221 µM), “* 17.2 ± 1.0 nmol/10^6 cells”. For the same compound, the fold induction at 111 µM in the data set on AGS cells [7] (Homo sapiens, AGS, 111 µM, read-out: increase in PGE2 content) came out at 2.4. For the same compound, the fold induction at 221 µM in the data set with AGS cells [7] (Homo sapiens, AGS, 221 µM, read-out: increase in PGE2 content) amounted to 3. Besides, the PGE2 in the data set with AGS cells [7] (111 µM) is 123 ± 9 pg/mL; in the data set with AGS cells [7] (221 µM), 156 ± 13 pg/mL. In addition, the IC50 at 24 h came to 884 ± 62 µM in data set [2] and 369 ± 29 µM in data set [4]. Moreover, the “Percentual proliferative increase” value with MRC-5 fibroblasts stood at 3.6%. In addition, the “% Inhibition of the lipoperoxidation” value in data set [3] is reported as 28%.
Take `CC(C)=CCC1=C(OC(=O)C[C@H](C)CC[C@H]2[C@@H](C)CCC3[C@]2(C)CCC[C@]3(C)C(=O)O)C(=O)c2ccccc2C1=O` (stereo partly drawn) [Compound 13, Lapachoyl 17β-dihydrojunicedrate]: the “IC50, inhibition of the lipoperoxidation” value in data set [6] is recorded as “IC50 61.1 ± 5.9 µg/mL”. Moreover, the figures for the GSH in the data set on AGS cells [1] (44 µM) and in the data set on AGS cells [1] (88 µM) were 11.9 ± 0.4 nmol/10^6 cells and 11.4 ± 0.6 nmol/10^6 cells, respectively. Besides, the IC50 at 24 h in data set [2] worked out at 351 ± 29 µM; in data set [4] it was 355 ± 21 µM. Besides, the “Percentual proliferative increase” value in the data set on MRC-5 fibroblasts is given as 7.3%. Besides, the “reduction in cell viability” value with AGS cells [5] (45 µM) and in the data set on AGS cells [5] (89 µM) was 38% in each case.
With `COC(=O)[C@@]1(C)CCC[C@]2(C)C(CC[C@@H](C)CC(=O)OC3=C(CCC(C)C)C(=O)C4=C(CCCC4)C3=O)=C(C)CCC12` (stereo partly drawn) [Compound 24, Dihydroprenyl-5,6,7,8-tetrahydrolapachoyl Δ8(9) junicedrate methyl ester], the results for the GSH entry with AGS cells [1] (125 µM) and in the data set with AGS cells [1] (250 µM) were “* 18.7 ± 1.0 nmol/10^6 cells” and “* 18.0 ± 0.9 nmol/10^6 cells”, respectively. For the same compound, the fold induction at 250 µM with AGS cells [7] (Homo sapiens, AGS, 250 µM, read-out: increase in PGE2 content) is 2.4. In the data set with AGS cells [7] (250 µM), this compound displayed a PGE2 of 123 ± 12 pg/mL. Besides, the half-inhibitory concentration (IC50) at 24 h in data set [2] and in data set [4] was greater than 1000 µM in each case. Also, the “Stimulation of fibroblast proliferation” value in the data set with MRC-5 fibroblasts was “inactive”. For the same compound, the “% Inhibition of the lipoperoxidation” value in data set [3] is on record as 27%.
In the case of `CC1=C(CC[C@@H](C)CC(=O)O)[C@@]2(C)CCC[C@](C)(C(=O)O)C2CC1` (stereo partly drawn) [Compound 5, Δ8(9) Junicedric acid], the “IC50, inhibition of the lipoperoxidation” value in data set [6] was “IC50 43.8 ± 2.8 µg/mL”. Also, the “Effect in the GSH assay” value in the data set with AGS cells [1] (AGS, 1/4 and 1/8 of IC50) was “devoid of activity”. Further, the values for the GSH in the data set on AGS cells [1] (83 µM) and with AGS cells [1] (166 µM) were 13.6 ± 0.5 nmol/10^6 cells and 14.1 ± 0.6 nmol/10^6 cells, respectively. The IC50 at 24 h in data set [2] was determined as 666 ± 35 µM; in data set [4] it was 834 ± 51 µM. For the same compound, in the data set on MRC-5 fibroblasts, the “Percentual proliferative increase” value is given as 3.6%. Further, the “reduction in cell viability” value in the data set on AGS cells [5] (83 µM) came out at 19%; with AGS cells [5] (333 µM), 35%.
On to `CC(C)=CCC1=C(OC(=O)C[C@H](C)CCC2=C(C)CCC3[C@@](C)(C(=O)O)CCC[C@]23C)C(=O)c2ccccc2C1=O` (stereo partly drawn) [Compound 19, Lapachoyl Δ8(9) junicedrate], for which the GSH turned out to be 13.1 ± 0.4 nmol/10^6 cells in the data set on AGS cells [1] (19 µM) and 13.5 ± 0.5 nmol/10^6 cells in the data set with AGS cells [1] (37 µM). Moreover, the values for the 50% inhibitory concentration (IC50) at 24 h in data set [2] and in data set [4] were 148 ± 9 µM and 129 ± 9 µM, respectively. Moreover, in data set [3], the “% Inhibition of the lipoperoxidation” value turned out to be 49%. For the same compound, the “reduction in cell viability” value in the data set on AGS cells [5] (19 µM) was 15%; in the data set on AGS cells [5] (37 µM) it was 27%; in the data set with AGS cells [5] (74 µM), 40%.
Consider `CC(C)=CCC1=C(O)C(=O)c2ccccc2C1=O` [Compound 1, Lapachol], for which the figures for the GSH with AGS cells [1] (72 µM) and with AGS cells [1] (143 µM) were 13.9 ± 0.9 nmol/10^6 cells and 14.1 ± 0.8 nmol/10^6 cells, respectively. The fold induction at 143 µM in the data set on AGS cells [7] (Homo sapiens, AGS, 143 µM, read-out: increase in PGE2 content) worked out at 2.3. Besides, the fold induction at 286 µM in the data set with AGS cells [7] (Homo sapiens, AGS, 286 µM, read-out: increase in PGE2 content) was 2.5. For the same compound, the PGE2 is reported as 117 ± 10 pg/mL in the data set with AGS cells [7] (143 µM) and 132 ± 12 pg/mL with AGS cells [7] (286 µM). In addition, the half-maximal inhibitory concentration (IC50) at 24 h was 571 ± 28 µM in data set [2] and greater than 1000 µM in data set [4]. For the same compound, the “% Inhibition of the lipoperoxidation” value in data set [3] worked out at 38%.

The values are drawn from paper PMC6270338, “Diterpenylquinone Hybrids: Synthesis and Assessment of Gastroprotective Mechanisms of Action in Human Cells” (Molecules, 2013).
